# Measurements as given in ChEMBL document CHEMBL5380830, “Development and Therapeutic Implications of Tyrosine Kinase 2 Inhibitors” (J Med Chem, 2023).
# Tests used:
# [1] = target: T1, Non-receptor tyrosine-protein kinase TYK2 (Homo sapiens, UniProt P29597); assay: Inhibition of TYK2 JH2 in human TF-1 cells assessed as reduction of IFNalpha induced STAT1 phosphorylation; type: cell-based
# [2] = target: T1, Non-receptor tyrosine-protein kinase TYK2; assay: Inhibition of TYK2 JH2 (unknown origin) by scintillation proximity assay
# [3] = Inhibition of IFNalpha induced STAT phosphorylation in human whole blood by fluorescence based analysis; type: tissue-based
# [4] = target: T2, Tyrosine-protein kinase JAK1 (Homo sapiens, UniProt P23458); assay: Inhibition of human recombinant JAK1 preincubated for 15 mins followed by substrate addition measured after 60 mins by HTRF assay
# T2 sequence (P23458 whole entry): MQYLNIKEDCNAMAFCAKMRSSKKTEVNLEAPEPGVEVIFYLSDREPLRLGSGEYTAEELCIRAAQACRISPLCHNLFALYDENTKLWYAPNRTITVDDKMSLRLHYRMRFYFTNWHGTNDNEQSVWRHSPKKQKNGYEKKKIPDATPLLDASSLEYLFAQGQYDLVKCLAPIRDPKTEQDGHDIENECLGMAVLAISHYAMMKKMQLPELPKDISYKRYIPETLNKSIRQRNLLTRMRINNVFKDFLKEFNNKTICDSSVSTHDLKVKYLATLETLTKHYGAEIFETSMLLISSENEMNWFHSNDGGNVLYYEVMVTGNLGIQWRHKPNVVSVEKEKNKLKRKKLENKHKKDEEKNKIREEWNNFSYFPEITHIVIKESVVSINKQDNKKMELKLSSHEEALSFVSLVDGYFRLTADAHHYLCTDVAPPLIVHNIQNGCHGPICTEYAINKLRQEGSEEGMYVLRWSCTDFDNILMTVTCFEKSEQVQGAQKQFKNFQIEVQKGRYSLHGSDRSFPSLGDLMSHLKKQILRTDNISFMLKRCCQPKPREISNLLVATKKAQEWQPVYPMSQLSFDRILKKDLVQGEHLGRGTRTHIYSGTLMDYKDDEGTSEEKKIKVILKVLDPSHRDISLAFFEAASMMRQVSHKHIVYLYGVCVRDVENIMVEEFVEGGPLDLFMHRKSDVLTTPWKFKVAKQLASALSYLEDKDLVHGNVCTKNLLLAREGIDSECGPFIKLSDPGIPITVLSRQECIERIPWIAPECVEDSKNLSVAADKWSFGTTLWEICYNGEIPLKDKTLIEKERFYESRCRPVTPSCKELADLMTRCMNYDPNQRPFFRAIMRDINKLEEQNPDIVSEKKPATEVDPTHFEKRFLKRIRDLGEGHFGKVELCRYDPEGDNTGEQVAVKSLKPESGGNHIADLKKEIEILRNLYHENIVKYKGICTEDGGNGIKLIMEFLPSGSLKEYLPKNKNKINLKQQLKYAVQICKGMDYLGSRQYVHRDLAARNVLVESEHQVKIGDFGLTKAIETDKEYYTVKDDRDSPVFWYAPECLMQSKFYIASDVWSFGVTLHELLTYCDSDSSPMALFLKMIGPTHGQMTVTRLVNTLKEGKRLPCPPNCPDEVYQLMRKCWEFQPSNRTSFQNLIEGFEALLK
# [5] = target: T1, Non-receptor tyrosine-protein kinase TYK2; assay: Inhibition of human recombinant TYK2 preincubated for 15 mins followed by substrate addition measured after 60 mins by HTRF assay
# [6] = target: T3, Tyrosine-protein kinase JAK2 (Homo sapiens, UniProt O60674); assay: Inhibition of human recombinant JAK2 preincubated for 15 mins followed by substrate addition measured after 60 mins by HTRF assay
# T3 sequence (O60674 whole entry): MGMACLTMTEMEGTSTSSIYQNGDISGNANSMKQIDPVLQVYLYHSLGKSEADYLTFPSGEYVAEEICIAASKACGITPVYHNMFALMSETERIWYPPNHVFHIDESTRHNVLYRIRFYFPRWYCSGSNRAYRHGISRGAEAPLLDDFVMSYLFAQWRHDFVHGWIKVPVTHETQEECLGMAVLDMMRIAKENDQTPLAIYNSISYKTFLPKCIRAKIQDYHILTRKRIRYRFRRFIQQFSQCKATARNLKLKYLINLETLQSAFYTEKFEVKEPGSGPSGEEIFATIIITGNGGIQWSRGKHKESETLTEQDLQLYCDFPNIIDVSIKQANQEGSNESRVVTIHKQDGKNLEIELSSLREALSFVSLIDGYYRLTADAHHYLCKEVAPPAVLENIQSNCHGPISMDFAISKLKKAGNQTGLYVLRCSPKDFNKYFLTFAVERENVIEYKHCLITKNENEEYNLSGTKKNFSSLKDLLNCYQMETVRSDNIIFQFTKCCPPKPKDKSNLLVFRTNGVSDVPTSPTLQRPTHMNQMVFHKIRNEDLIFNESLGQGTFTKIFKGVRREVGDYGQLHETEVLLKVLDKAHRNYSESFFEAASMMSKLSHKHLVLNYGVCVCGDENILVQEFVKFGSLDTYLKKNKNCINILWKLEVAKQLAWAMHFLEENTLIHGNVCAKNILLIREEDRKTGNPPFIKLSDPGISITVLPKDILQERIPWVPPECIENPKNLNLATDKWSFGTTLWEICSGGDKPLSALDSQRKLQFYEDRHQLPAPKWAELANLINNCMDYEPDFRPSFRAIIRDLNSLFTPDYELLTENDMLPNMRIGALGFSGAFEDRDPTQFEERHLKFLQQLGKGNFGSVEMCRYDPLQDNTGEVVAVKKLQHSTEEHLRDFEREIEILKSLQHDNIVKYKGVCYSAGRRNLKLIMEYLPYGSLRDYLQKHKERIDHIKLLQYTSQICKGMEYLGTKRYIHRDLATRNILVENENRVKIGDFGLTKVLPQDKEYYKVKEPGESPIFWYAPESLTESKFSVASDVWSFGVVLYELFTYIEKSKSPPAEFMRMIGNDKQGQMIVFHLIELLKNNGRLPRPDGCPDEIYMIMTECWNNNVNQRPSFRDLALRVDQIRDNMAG
# JAK2/TYK2 [7] = target: T4, JAK2/TYK2 (Homo sapiens, UniProt O60674+P29597); assay: Inhibition of JAK2/TYK2 signal transduction pathway in human NK92 cells assessed as […] induced IFNgamma expression incubated for 24 hrs by ELISA assay; type: cell-based
# T4 sequence (O60674 whole entry): as above
# T4 sequence (P29597 whole entry): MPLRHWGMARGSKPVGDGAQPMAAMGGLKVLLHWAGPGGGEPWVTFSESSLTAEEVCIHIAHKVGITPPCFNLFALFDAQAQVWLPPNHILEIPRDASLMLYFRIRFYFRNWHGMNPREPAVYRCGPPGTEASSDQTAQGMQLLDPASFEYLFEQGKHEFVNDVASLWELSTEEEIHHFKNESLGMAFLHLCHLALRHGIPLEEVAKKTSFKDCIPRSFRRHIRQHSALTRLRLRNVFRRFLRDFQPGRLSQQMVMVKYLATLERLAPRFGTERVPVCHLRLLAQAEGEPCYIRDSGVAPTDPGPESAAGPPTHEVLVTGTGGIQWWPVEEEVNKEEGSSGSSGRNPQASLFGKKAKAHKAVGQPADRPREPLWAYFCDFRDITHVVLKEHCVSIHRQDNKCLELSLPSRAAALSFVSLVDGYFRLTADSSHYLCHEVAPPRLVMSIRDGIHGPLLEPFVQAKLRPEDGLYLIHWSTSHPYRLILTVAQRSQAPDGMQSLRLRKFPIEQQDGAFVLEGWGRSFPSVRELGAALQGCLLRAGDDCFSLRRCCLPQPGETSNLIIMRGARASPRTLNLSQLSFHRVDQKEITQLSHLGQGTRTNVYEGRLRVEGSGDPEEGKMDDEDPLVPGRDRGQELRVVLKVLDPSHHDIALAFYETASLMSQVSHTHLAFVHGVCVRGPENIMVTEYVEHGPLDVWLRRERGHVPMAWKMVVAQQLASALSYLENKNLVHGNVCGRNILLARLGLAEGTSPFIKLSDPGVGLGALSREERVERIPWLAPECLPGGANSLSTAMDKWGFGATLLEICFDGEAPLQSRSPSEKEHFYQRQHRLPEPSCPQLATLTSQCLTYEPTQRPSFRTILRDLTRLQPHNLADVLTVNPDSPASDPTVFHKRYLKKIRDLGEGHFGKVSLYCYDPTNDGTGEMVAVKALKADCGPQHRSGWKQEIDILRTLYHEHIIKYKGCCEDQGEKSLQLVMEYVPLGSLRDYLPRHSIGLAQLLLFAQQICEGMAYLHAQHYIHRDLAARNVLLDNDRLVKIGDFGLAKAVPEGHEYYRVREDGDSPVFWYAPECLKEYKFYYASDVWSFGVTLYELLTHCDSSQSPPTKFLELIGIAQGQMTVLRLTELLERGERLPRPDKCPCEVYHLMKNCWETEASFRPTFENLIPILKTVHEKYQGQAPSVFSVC
# [8] = target: T5, Tyrosine-protein kinase JAK3 (Homo sapiens, UniProt P52333); assay: Inhibition of human recombinant JAK3 preincubated for 15 mins followed by substrate addition measured after 60 mins by HTRF assay
# T5 sequence (P52333 whole entry): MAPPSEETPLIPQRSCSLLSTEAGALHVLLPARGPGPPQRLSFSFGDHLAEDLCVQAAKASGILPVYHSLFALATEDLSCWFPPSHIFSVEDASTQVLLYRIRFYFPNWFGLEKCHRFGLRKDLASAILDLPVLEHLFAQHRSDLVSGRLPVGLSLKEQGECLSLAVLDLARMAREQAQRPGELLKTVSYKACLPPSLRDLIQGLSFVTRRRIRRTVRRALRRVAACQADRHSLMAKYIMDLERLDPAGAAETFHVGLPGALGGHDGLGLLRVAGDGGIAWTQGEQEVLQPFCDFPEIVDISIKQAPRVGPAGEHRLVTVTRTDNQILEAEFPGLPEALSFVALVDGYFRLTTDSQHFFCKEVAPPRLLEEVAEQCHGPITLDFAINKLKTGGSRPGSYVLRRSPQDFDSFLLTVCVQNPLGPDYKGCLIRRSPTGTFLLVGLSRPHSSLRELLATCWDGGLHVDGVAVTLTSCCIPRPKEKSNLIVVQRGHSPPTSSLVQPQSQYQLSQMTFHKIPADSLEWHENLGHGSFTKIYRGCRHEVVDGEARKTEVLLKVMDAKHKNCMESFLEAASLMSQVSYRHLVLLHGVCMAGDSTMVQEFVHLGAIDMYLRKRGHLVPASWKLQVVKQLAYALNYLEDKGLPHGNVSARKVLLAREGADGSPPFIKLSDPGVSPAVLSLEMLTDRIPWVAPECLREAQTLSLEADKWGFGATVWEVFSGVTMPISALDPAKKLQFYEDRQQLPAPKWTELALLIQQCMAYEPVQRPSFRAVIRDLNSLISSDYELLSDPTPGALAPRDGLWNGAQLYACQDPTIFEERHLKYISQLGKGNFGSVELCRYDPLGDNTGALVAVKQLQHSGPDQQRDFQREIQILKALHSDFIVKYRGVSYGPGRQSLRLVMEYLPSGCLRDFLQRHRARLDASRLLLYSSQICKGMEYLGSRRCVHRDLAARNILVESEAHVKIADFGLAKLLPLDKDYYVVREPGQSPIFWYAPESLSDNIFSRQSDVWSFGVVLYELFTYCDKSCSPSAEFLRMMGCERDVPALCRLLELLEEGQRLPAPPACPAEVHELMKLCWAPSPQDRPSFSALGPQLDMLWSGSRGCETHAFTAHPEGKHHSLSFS
# [9] = Inhibition of IL-23 induced STAT phosphorylation in HEK293 cells by Western blotting analysis; type: cell-based; conditions: Homo sapiens
# [10] = Inhibition of IFNalpha induced STAT phosphorylation in HEK293 cells by Western blotting analysis; type: cell-based; conditions: Homo sapiens
# JAK2/TYK2 [11] = target: T4, JAK2/TYK2; assay: Inhibition of JAK2/TYK2 signal transduction pathway in human PBMC cells assessed as reduction in GM-CSF induced p-STAT5 level incubated for 20 mins; type: cell-based
# [12] = target: T1, Non-receptor tyrosine-protein kinase TYK2; assay: Inhibition of TYK2 JH1 (unknown origin) at 10 uM relative to control
# [13] = target: T3, Tyrosine-protein kinase JAK2; assay: Inhibition of JAK2 JH1 (unknown origin) at 10 uM relative to control
# [14] = target: T2, Tyrosine-protein kinase JAK1; assay: Binding affinity to JAK1 JH2 (unknown origin)
# JAK2/TYK2 [15] = target: T4, JAK2/TYK2; assay: Inhibition of JAK2/TYK2 signal transduction pathway in human PBMC cells assessed as IL-12 induced p-STAT4 level incubated for 30 mins; type: cell-based
# [16] = target: T1, Non-receptor tyrosine-protein kinase TYK2; assay: Binding affinity to human wild-type partial length TYK2 JH2 (G556 to D888 residues) expressed in mammalian expression system by KINOMEscan assay
# [17] = Half life in mouse at 10 mg/kg, po measured upto 24 hrs by LC-MS/MS analysis; type: ADME, organism-based; conditions: in vivo
# [18] = target: T1, Non-receptor tyrosine-protein kinase TYK2; assay: Inhibition of TYK2 signal transduction pathway in human TF-1 cells assessed as reduction in GM-CSF induced p-STAT5 level; type: cell-based
# JAK2/TYK2 [19] = target: T4, JAK2/TYK2; assay: Inhibition of JAK2/TYK2 signal transduction pathway in human NK92 cells assessed as IL-12 induced STAT4 phosphorylation; type: cell-based
# [20] = AUClast in mouse at 10 mg/kg, po measured upto 24 hrs by LC-MS/MS analysis; type: ADME, organism-based; set-up: dose 10 mg/kg, time < 24 hrs, route po; conditions: in vivo
# [21] = Cmax in mouse at 10 mg/kg, po measured upto 24 hrs by LC-MS/MS analysis; type: ADME, organism-based; set-up: time < 24 hrs, dose 10 mg/kg, route po; conditions: in vivo
# [22] = target: T5, Tyrosine-protein kinase JAK3; assay: Inhibition of JAK3 (unknown origin) using ULight - JAK (Tyr1023) substrate incubated for 60 mins in presence of ATP by envision plate reader based analysis
# [23] = target: T1, Non-receptor tyrosine-protein kinase TYK2; assay: Binding affinity to TYK2 JH2 (unknown origin)
# [24] = target: T1, Non-receptor tyrosine-protein kinase TYK2; assay: Inhibition of TYK2 signal transduction pathway in human PBMC cells assessed as IFNalpha induced p-STAT5 level; type: cell-based
# [25] = target: T1, Non-receptor tyrosine-protein kinase TYK2; assay: Inhibition of TYK2 JH2 in human KIT225 cells assessed as reduction of IFNalpha induced STAT1 phosphorylation by AlphaLISA assay; type: cell-based
# T1 sequence (P29597 whole entry): as the sequence (P29597 whole entry) above
structure (smiles),measurement,setting,value
CNc1cc(Nc2cccn(-c3ccccn3)c2=O)nc2c(C(=O)N[C@@H]3CCN(C)C3=O)cnn12,IC50,[1],112 nM
same,IC50,[2],< 254 nM
[2H]C([2H])([2H])NC(=O)c1cnc(Nc2cc(C3CC3)ncn2)cc1Nc1ncccc1S(C)(=O)=O,IC50,[3],9 nM
NC(=O)c1nnc(-c2c(F)cccc2F)cc1Nc1ccc(N2CCOCC2=O)cn1,IC50,[4],81 nM
same,IC50,[5],0.08 nM
same,IC50,[6],5 nM
same,IC50,JAK2/TYK2 [7],0.3 nM
same,IC50,[8],7 nM
[2H]C([2H])([2H])NC(=O)c1nnc(Nc2ccc(C(C)(C)O)cn2)cc1Nc1nc(C)ccc1S(C)(=O)=O,IC50,[3],6 nM
[2H]C([2H])([2H])NC(=O)c1nnc(NC(=O)C2CC2)cc1Nc1cccc2c1N(C)Cc1nc(C)nn1-2,IC50,[9],< 30 nM
same,IC50,[10],< 30 nM
CNc1cc(Nc2cccnc2OC)nc2c(C(=O)NCC3(CO)CC3)cnn12,IC50,JAK2/TYK2 [11],< 500 nM
same,inhibition,[12],< 50%
same,inhibition,[13],< 50%
same,Kd,[14],5000 nM
same,IC50,JAK2/TYK2 [15],< 500 nM
same,Kd,[16],< 0.2 nM
[2H]C([2H])([2H])NC(=O)c1nnc(NC(=O)[C@H]2CC23CC3)cc1Nc1ncccc1S(C)(=O)=O,IC50,[3],47 nM
COc1cc(Nc2cc(NC(C)=O)ncc2-c2ccc3c(n2)OCC(C)(C)O3)nc(S(C)(=O)=O)c1,half-life,[17],3.01 h
same,IC50,[18],1820 nM
same,IC50,JAK2/TYK2 [19],0.053 nM
same,AUC(0-t) at 24 h,[20],16.2 µg·h/mL
same,Cmax,[21],2.82 µg/mL
Cn1cc(-c2cn3ncnc3c(-c3ccn([C@]4(CC#N)C[C@H](C#N)C4)c3)n2)cn1,IC50,[22],> 5000 nM
[2H]C([2H])([2H])n1nnc2c3cc(cc21)CO[C@@H]1CCC[C@H]1NC(=O)c1cnc2c(NC)cc(nn12)N3,Kd,[23],0.002 nM
same,IC50,[24],1.7 nM
NC(=O)c1nnc(-c2c(F)cccc2F)cc1Nc1ccc(N2CCOCC2)cn1,IC50,[4],38 nM
same,IC50,[5],< 0.06 nM
same,IC50,[6],4 nM
same,IC50,JAK2/TYK2 [7],0.08 nM
same,IC50,[8],1 nM
CNc1cc(Nc2cccc3c2OCCC3)nc2c(C(=O)N[C@@H]3CCN(C)C3=O)cnn12,IC50,[1],7 nM
same,IC50,[2],< 254 nM
[2H]C([2H])([2H])NC(=O)c1nnc(NC(=O)C2CC2)cc1Nc1cccc(-c2nc(CN3CCN(S(C)(=O)=O)CC3)no2)c1OC,IC50,[3],30 nM
CNC(=O)c1nnc(NC(=O)N2CCC2)cc1Nc1cccc(-c2ncn(C)n2)c1OC,Kd,[16],0.028 nM
same,IC50,[25],54 nM
COc1cc(Nc2cc(NC(C)=O)ncc2-c2ccc(C(C)(C)O)cn2)nc(S(C)(=O)=O)c1,half-life,[17],2.07 h
same,IC50,[18],> 10000 nM
same,IC50,JAK2/TYK2 [19],1 nM
same,AUC(0-t) at 24 h,[20],0.0193 µg·h/mL
same,Cmax,[21],0.00873 µg/mL
CNc1cc(Nc2cccn(-c3cnc(C(C)(C)O)cn3)c2=O)nc2c(C(=O)NC3CCC3)cnn12,IC50,JAK2/TYK2 [11],< 500 nM
same,inhibition,[12],< 50%
same,inhibition,[13],< 50%
same,Kd,[14],5000 nM
same,IC50,JAK2/TYK2 [15],< 500 nM
same,Kd,[16],< 0.2 nM
[2H]C([2H])([2H])NC(=O)c1nnc(Nc2ccc(F)cn2)cc1Nc1cccc2c1N(C)Cc1n[nH]c(=O)n1-2,IC50,[9],< 30 nM
same,IC50,[10],< 30 nM
[2H]C([2H])([2H])NC(=O)c1nnc(NC(=O)C2CC2)cc1Nc1cccc2c1N(C)Cc1cn(C([2H])([2H])[2H])nc1-2,IC50,[9],< 30 nM
same,IC50,[10],< 30 nM
